These are literature values, as cited in patent publication US20210095288A1, “METHODS OF MODULATING NKX6.3” (SOCIETE DES PRODUITS NESTLE S.A., priority 2018, published 2021).

The data set has as its system NKX6.3. As to conditions: effect on NKX6.3 expression; from Davis A P, et al., Comparative Toxicogenomics Database: update 2017.
Turning to `CC(=O)Nc1ccc(O)cc1` [Acetaminophen], the “Interaction Actions” value is given as “Decreases”.
Take `COC[C@@H]([C@H](O)[C@H](O)C(=O)NCC[C@H](C)c1nc(/C=C/C[C@@H]2O[C@]3(C[C@@H](O)[C@@H]2C)O[C@H]([C@H](C[C@H](O)[C@H](C)[C@H](O)[C@H](C)/C=C(C)/C(C)=C/C=C/C(C)=C\C#N)OC)[C@H](OP(=O)(O)O)C3(C)C)co1)N(C)C` [calyculin A]: the “Interaction Actions” value is listed as “Decreases”.
As for `CCCc1cc(=O)[nH]c(=S)[nH]1` [Propylthiouracil], the “Interaction Actions” value is given as “Decreases”.
`CC(C)(c1ccc(O)cc1)c1ccc(O)cc1` [bisphenol A]: the “Interaction Actions” value is recorded as “Decreases”.
`CCC[CH2][Sn]([CH2]CCC)([CH2]CCC)[O][Sn]([CH2]CCC)([CH2]CCC)[CH2]CCC` [bis(tri-n-butyltin)oxide]: the “Interaction Actions” value is “Decreases”.
